Measured values reported in patent publication US20080227799A1, “CXCR4 Antagonists Including Heteroatoms for the Treatment of Medical Disorders” (priority 2006, published 2008).
“Also recorded” adds a separate entry of the source.

Assays:
[1] = tested on: CXCR4/SDF-1-mediated Erk1/2 phosphorylation; test: SDF-1-stimulated Erk1/2 phosphorylation; type: cell-based; details: data not shown
Description: (§1) CXCR4/SDF-1 interaction activates PI3K/Akt and Ras/Raf/MEK/Erk pathways in a Gαi protein (PTX-sensitive)-dependent manner. Experiments were conducted to determine the effect of blocking CXCR4/SDF-1 interaction by either TN14003 or AMD3100 at different concentrations (0, 0.01, 0.1, 1, 10, 100, 1000 nM) on phosphorylations of Akt and Erk1/2 signaling. Incubating cells with 100 ng/ml of SDF-1 for 30 minutes activated Akt. […] However, the increase in Erk1/2 phosphorylation by SDF-1 was not significant as the increase in Akt phosphorylation.

[2] = tested on: CXCR4; test: CXCR4 protein levels after treating cells; type: cell-based; details: treated cells
[3] = target: T1, CXCR4 (Homo sapiens, UniProt P61073); test: Competition assay using biotin-labeled TN14003 and streptavidin-conjugated rhodamine on tumor cells; type: binding
T1 construct: endogenous in cells; probably MDA-MB-231
Description: In a separate embodiment, a process for screening potential drug candidates is provided. The process includes providing a labeled peptide-based CXCR4 antagonist that has a detectable signal when bound to a CXCR4 receptor; contacting a CXCR4 receptor with at least one test molecule at a known concentration to form a test sample; contacting the test sample with the peptide-based antagonist; separately, contacting the peptide-based antagonist to a sample not including any test molecule to form a control sample; and comparing the signal from the test sample to the signal from the control sample. In a specific subembodiment, the peptide-based antagonist is derived from TN14003 (described in PCT Publication No. WO 04/087068 to Emory University). In a further subembodiment, the antagonist is labeled with a biotin molecule and the signal is elicited when the biotin-labeled antagonist is contacted with a streptavadin-conjugated signal molecule.
The peptide-based antagonist is typically a molecule with high affinity for the receptor. In one embodiment, the molecule is derived from the “T140” peptide antagonists. In a specific embodiment, the antagonist is TN14003 (described in PCT Publication No. WO 04/087068 to Emory University). The receptor is typically expressed in a cell line. The process can be performed as a dose-response curve. In this embodiment, the test compound is incubated with the receptor at varying concentrations and the signal elicited after binding of the labeled antagonist is measured and compared to control, as well as to each other.
Using biotin-labeled TN14003 along with streptavidin-conjugated rhodamine allowed a determination of the binding efficiency of these chemicals to the SDF-1 binding site of CXCR4 on tumor cells and compared it to AMD3100-SDF-1 interactions (FIG. 7). […] Cells were pre-incubated with different concentrations of AMD3100. […] Therefore, one of these compounds, WZZL811S, was selected to study its therapeutic potential based on potency and low toxicity to cells (FIG. 9).

[4] = withdrawn from clinical trials; cited from earlier work
[5] = tested on: CXCR4/SDF-1-mediated Akt activation; test: SDF-1-stimulated Akt phosphorylation in MDA-MB-231 cells (western blot); type: cell-based; details: for concentration blocking Akt activation: 100 ng/ml SDF-1, 30 minutes, 0-1000 nM tested; for SDF-1-stimulated phosphorylation of Akt: MDA-MB-231 cells, 100 ng/ml SDF-1, 30 min, dose-dependent
Description: as §1

[6] = tested on: SHIV; test: SHIV infection of model cells, p27 antigen capture; type: cell-based; details: 0.1, 1, 10 or 100 nM drug prior to infection
Description: The effect of the test compounds on HIV infection in model cells was analyzed by p27 antigen capture using SHIV infected cells. Cells were incubated with 0, 0.1, 1, 10 or 100 nM drug prior to infection with SHIV. Viral titer was measured after infection by analyzing levels of p27 antigen. […] The inhibition was measurable at 2 days, and continued to 5 day incubations.

[7] = tested on: human umbilical vein endothelial cells (HUVECs); test: Endothelial capillary tube formation assay; type: cell-based; details: 100 nM; SDF-1 100 ng/ml; 18 hours
Description: The anti-angiogenic effect of test compounds was measured by analyzing endothelial cell growth and tube formation. The angiogenic effect of SDF-1 (100 ng/ml) on capillary formation by human umbilical vein endothelial cells (HUVECs) was examined in vitro using Matrigel-coated 24-well plates precoated with Matrigel and incubated for 18 hours. The angiogenic effect of SDF-1 was inhibited by either 100 nM TN14003 (peptide-based CXCR4 antagonist) or WZZL811S treatment (FIG. 14a, graph FIG. 14b).

[8] = tested on: MDA-MB-231 cells; test: Matrigel invasion assay, CXCR4/SDF-1-mediated invasion; type: cell-based; details: 2 nM
Description: Lowering CXCR4 mRNA levels by siRNAs inhibited CXCR4/SDF-1-mediated invasion as measured by a matrigel invasion assay. The CXCR4 ligand, SDF-1 (400 ng/ml) was added to the lower chamber to attract CXCR4-positive breast cancer cells to migrate through the matrigel. The invasion of MDA-MB-231 cells transfected with siRNA1 decreased to 39±4% of the control cells, 51±8% with siRNA2, and only 16±6% with both siRNA1+2 (FIG. 3A).
WZZL811S was tested in a matrigel invasion assay to determine whether it can inhibit CXCR4/SDF-1-mediated invasion.

[9] = tested on: metastatic 686LN cells; test: 686LN head & neck cancer metastasis model, tail vein injection, FDG-PET; type: in vivo; details: 20 mg/mouse/twice weekly; thirty days
Description: The metastatic 686LN cells were injected intravenously through the tail vein to generate experimental animal models for Head & Neck cancer metastasis, modulated via CXCR4. […] These 3-D projection images show lung metastases well (bone mets and liver mets were apparent in axial section images of mice in control groups, data not shown).

[10] = tested on: MDA-MB-231 cells; test: Cell viability of MDA-MB-231 cells; type: cell-based; details: 100 μM (the highest concentration tested)
[11] = tested on: HIV; details: MT-4 cells; read-out: concentration required for 50% protection of HIV-induced cytopathogenicity; cited from earlier work
[12] = target: T1, CXCR4; test: Immunofluorescence of biotin-labeled TN14003 on MDA-MB-231 cells preincubated with SDF-1; type: binding; details: 400 ng/ml SDF-1, 10 min
Description: Initially, experiments were performed to verify that TN14003 binds to the predicted SDF-1 binding sites on the CXCR4 receptor. In these studies, MDA-MB-231 cells were incubated in the absence (FIG. 1A, B) or presence (FIG. 1A, C) of 400 ng/ml of SDF-1α for 10 min, and then fixed in ice-cold acetone. Immunofluorescence of the biotin-labeled TN14003 was negative in both membrane and cytosol in the cells pretreated with SDF-1α for 10 min (FIG. 1A, C).

[13] = tested on: MT-4 cells; details: cited from earlier work

T1 sequence (P61073 whole entry): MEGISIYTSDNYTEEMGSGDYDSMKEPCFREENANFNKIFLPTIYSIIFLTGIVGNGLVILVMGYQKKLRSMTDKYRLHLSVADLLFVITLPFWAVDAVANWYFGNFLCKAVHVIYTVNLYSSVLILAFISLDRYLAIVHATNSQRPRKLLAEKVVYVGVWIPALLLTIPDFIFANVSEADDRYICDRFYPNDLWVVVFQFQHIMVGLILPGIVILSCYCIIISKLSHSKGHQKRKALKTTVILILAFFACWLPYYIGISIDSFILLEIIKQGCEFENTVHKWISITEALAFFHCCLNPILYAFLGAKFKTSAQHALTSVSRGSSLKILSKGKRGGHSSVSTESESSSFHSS

Row | Molecule | effect on CXCR4 protein levels [2] | concentration blocking Akt activation [5] | SDF-1-stimulated phosphorylation of Akt [5] | SHIV infection (p27 antigen levels) [6] | angiogenic effect of SDF-1 on capillary tube formation [7] | CXCR4/SDF-1 mediated invasion of MDA-MB-231 [8] | further results
1 | C1=CC(CN2CCCNCCNCCCNCC2)CC=C1CN1CCCNCCNCCCNCC1 (stereo not shown) [AMD3100] | did not affect | a few nano molar | blocked |  |  |  | concentration attenuating Erk1/2 phosphorylation [1]: 100 nM; concentration needed to compete against biotin-labeled TN14003 ([3]; cells pre-incubated with different concentrations): 10 µM; side effect in clinical study [4]: cardiac-related side effect
2 | c1cnc(NCc2ccc(CNc3ncccn3)cc2)nc1 [WZ40] |  |  |  | inhibited SHIV infection at all concentrations tested |  |  | 
3 | c1ccc(NCc2ccc(CNc3ccccn3)cc2)nc1 [WZZL811S] |  |  | blocked | inhibited SHIV infection at all concentrations tested | inhibited | as potent as TN14003; also recorded: blocked | IC50 ([3]; cells pre-incubated with various concentrations, read-out: IC50, detection of CXCR4 by biotin-labeled TN14003 on pre-incubated cells): < 1 nM; binding affinity to the ligand-binding site of CXCR4 on tumor cells ([3]; competition with biotin-labeled TN14003): nano-molar concentration; efficacy relative to TN14003 [9]: 80%; cell viability of MDA-MB-231 cells [10]: did not decrease cell viability
4 | TN14003 | did not affect | sub-nano molar concentration | blocked |  | inhibited | blocked | EC50 [11]: 0.6 nM; concentration attenuating Erk1/2 phosphorylation (in words) [1]: sub-nano molar concentration; metastasis of 686LN cells to organs (FDG-PET) [9]: failed to metastasize to any organs; binding of biotin-labeled TN14003 to CXCR4 after SDF-1 preincubation [12]: negative; also recorded: blocked; concentration leading to 50% toxicity [13]: 410 µM
